According to the supplement of paper PMC10307832:

Legend:
Experiment in all cases: relative viability (nuclei count vs DMSO), 5 days (fraction); higher = more cells survive
NCI-H1650 = test system: NCI-H1650
Method in brief: (§1)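 One day after seeding in 1536-well plates, lung cancer cell lines were dosed by pin tool. Dosing was either single-drug or a fixed anchor-drug dose plus five library-drug doses (not always all listed) in √10 steps. After 5 days, nuclei were stained in one fix-and-stain step and counted on 4× images, and relative viability is the nuclei count of treated wells over that of vehicle wells, given as the median of duplicate plates.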

CAL-12T = test system: CAL-12T
Method in brief: as §1

NCI-H1915 = test system: NCI-H1915
Method in brief: as §1

H3255 = test system: H3255
Method in brief: as §1

LC-2-ad = test system: LC-2-ad
Method in brief: as §1

NCI-H441 = test system: NCI-H441
Method in brief: as §1

A-427 = test system: A-427
Method in brief: as §1

NCI-H1944 = test system: NCI-H1944
Method in brief: as §1

PC-3 [JPC-3] = test system: PC-3 [JPC-3]
Method in brief: as §1

NCI-H2087 = test system: NCI-H2087
Method in brief: as §1

NCI-H460 = test system: NCI-H460
Method in brief: as §1

NCI-H596 = test system: NCI-H596
Method in brief: as §1

201T = test system: 201T
Method in brief: as §1

NCI-H650 = test system: NCI-H650
Method in brief: as §1

NCI-H727 = test system: NCI-H727
Method in brief: as §1

BEN = test system: BEN
Method in brief: as §1

LCLC-97TM1 = test system: LCLC-97TM1
Method in brief: as §1

NCI-H661 = test system: NCI-H661
Method in brief: as §1

NCI-H520 = test system: NCI-H520
Method in brief: as §1

ABC-1 = test system: ABC-1
Method in brief: as §1

NCI-H1651 = test system: NCI-H1651
Method in brief: as §1

NCI-H2023 = test system: NCI-H2023
Method in brief: as §1

NCI-H1792 = test system: NCI-H1792
Method in brief: as §1

Compound: NC(=O)Nc1cc(-c2cccc(F)c2)sc1C(=O)N[C@H]1CCCNC1 [AZD7762] + C[C@@H](Oc1cc(-c2cnn(C3CCNCC3)c2)cnc1N)c1c(Cl)ccc(F)c1Cl [Crizotinib] (partner 1 µM)
- relative viability (NCI-H1650; first compound 0.01 µM): 1.18
- relative viability (NCI-H1650; first compound 0.03162 µM): 1.03
- relative viability (NCI-H1650; first compound 0.1 µM): 0.864
- relative viability (NCI-H1650; first compound 0.3162 µM): 0.603
- relative viability (NCI-H1650; first compound 1 µM): 0.207
- relative viability (CAL-12T; first compound 0.01 µM): 0.735
- relative viability (CAL-12T; first compound 0.03162 µM): 0.554
- relative viability (CAL-12T; first compound 0.1 µM): 0.486
- relative viability (CAL-12T; first compound 0.3162 µM): 0.33
- relative viability (CAL-12T; first compound 1 µM): 0.105
- relative viability (NCI-H1915; first compound 0.01 µM): 0.93
- relative viability (NCI-H1915; first compound 0.03162 µM): 0.919
- relative viability (NCI-H1915; first compound 0.1 µM): 0.891
- relative viability (NCI-H1915; first compound 0.3162 µM): 0.944
- relative viability (NCI-H1915; first compound 1 µM): 0.823
- relative viability (H3255; first compound 0.01 µM): 0.997
- relative viability (H3255; first compound 0.03162 µM): 0.88
- relative viability (H3255; first compound 0.1 µM): 0.891
- relative viability (H3255; first compound 0.3162 µM): 0.867
- relative viability (H3255; first compound 1 µM): 0.42
- relative viability (LC-2-ad; first compound 0.01 µM): 0.551
- relative viability (LC-2-ad; first compound 0.03162 µM): 0.483
- relative viability (LC-2-ad; first compound 0.1 µM): 0.52
- relative viability (LC-2-ad; first compound 0.3162 µM): 0.522
- relative viability (LC-2-ad; first compound 1 µM): 0.295
- relative viability (NCI-H441; first compound 0.01 µM): 1.15
- relative viability (NCI-H441; first compound 0.03162 µM): 0.745
- relative viability (NCI-H441; first compound 0.1 µM): 1.15
- relative viability (NCI-H441; first compound 0.3162 µM): 0.995
- relative viability (NCI-H441; first compound 1 µM): 0.89
- relative viability (A-427; first compound 0.01 µM): 1.01
- relative viability (A-427; first compound 0.03162 µM): 0.869
- relative viability (A-427; first compound 0.1 µM): 0.992
- relative viability (A-427; first compound 0.3162 µM): 0.815
- relative viability (A-427; first compound 1 µM): 0.386
- relative viability (NCI-H1944; first compound 0.01 µM): 1.29
- relative viability (NCI-H1944; first compound 0.03162 µM): 1.22
- relative viability (NCI-H1944; first compound 0.1 µM): 1.2
- relative viability (NCI-H1944; first compound 0.3162 µM): 1.19
- relative viability (NCI-H1944; first compound 1 µM): 0.918
- relative viability (PC-3 [JPC-3]; first compound 0.01 µM): 0.999
- relative viability (PC-3 [JPC-3]; first compound 0.03162 µM): 0.962
- relative viability (PC-3 [JPC-3]; first compound 0.1 µM): 1.01
- relative viability (PC-3 [JPC-3]; first compound 0.3162 µM): 1.02
- relative viability (PC-3 [JPC-3]; first compound 1 µM): 0.903
- relative viability (NCI-H2087; first compound 0.01 µM): 0.906
- relative viability (NCI-H2087; first compound 0.03162 µM): 0.879
- relative viability (NCI-H2087; first compound 0.1 µM): 1.02
- relative viability (NCI-H2087; first compound 0.3162 µM): 0.825
- relative viability (NCI-H2087; first compound 1 µM): 0.846
- relative viability (NCI-H460; first compound 0.01 µM): 1.13
- relative viability (NCI-H460; first compound 0.03162 µM): 0.879
- relative viability (NCI-H460; first compound 0.1 µM): 0.758
- relative viability (NCI-H460; first compound 0.3162 µM): 0.593
- relative viability (NCI-H460; first compound 1 µM): 0.0457
- relative viability (NCI-H596; first compound 0.01 µM): 0.991
- relative viability (NCI-H596; first compound 0.03162 µM): 0.942
- relative viability (NCI-H596; first compound 0.1 µM): 1.02
- relative viability (NCI-H596; first compound 0.3162 µM): 1.11
- relative viability (NCI-H596; first compound 1 µM): 0.863
- relative viability (201T; first compound 0.01 µM): 0.969
- relative viability (201T; first compound 0.03162 µM): 1.02
- relative viability (201T; first compound 0.1 µM): 1.03
- relative viability (201T; first compound 0.3162 µM): 1.04
- relative viability (201T; first compound 1 µM): 1.16
- relative viability (NCI-H650; first compound 0.01 µM): 0.882
- relative viability (NCI-H650; first compound 0.03162 µM): 0.594
- relative viability (NCI-H650; first compound 0.1 µM): 0.714
- relative viability (NCI-H650; first compound 0.3162 µM): 0.688
- relative viability (NCI-H650; first compound 1 µM): 0.466
- relative viability (NCI-H727; first compound 0.01 µM): 0.984
- relative viability (NCI-H727; first compound 0.03162 µM): 0.865
- relative viability (NCI-H727; first compound 0.1 µM): 0.758
- relative viability (NCI-H727; first compound 0.3162 µM): 0.519
- relative viability (NCI-H727; first compound 1 µM): 0.259
- relative viability (BEN; first compound 0.01 µM): 0.911
- relative viability (BEN; first compound 0.03162 µM): 0.924
- relative viability (BEN; first compound 0.1 µM): 0.827
- relative viability (BEN; first compound 0.3162 µM): 0.859
- relative viability (BEN; first compound 1 µM): 0.616
- relative viability (LCLC-97TM1; first compound 0.01 µM): 0.385
- relative viability (LCLC-97TM1; first compound 0.03162 µM): 0.337
- relative viability (LCLC-97TM1; first compound 0.1 µM): 0.317
- relative viability (LCLC-97TM1; first compound 0.3162 µM): 0.448
- relative viability (LCLC-97TM1; first compound 1 µM): 0.334
- relative viability (NCI-H661; first compound 0.01 µM): 0.952
- relative viability (NCI-H661; first compound 0.03162 µM): 0.87
- relative viability (NCI-H661; first compound 0.1 µM): 1.08
- relative viability (NCI-H661; first compound 0.3162 µM): 0.99
- relative viability (NCI-H661; first compound 1 µM): 0.886
- relative viability (NCI-H520; first compound 0.01 µM): 0.975
- relative viability (NCI-H520; first compound 0.03162 µM): 0.692
- relative viability (NCI-H520; first compound 0.1 µM): 0.477
- relative viability (NCI-H520; first compound 0.3162 µM): 0.504
- relative viability (NCI-H520; first compound 1 µM): 0.276
- relative viability (ABC-1; first compound 0.01 µM): 1.1
- relative viability (ABC-1; first compound 0.03162 µM): 1.56
- relative viability (ABC-1; first compound 0.1 µM): 0.842
- relative viability (ABC-1; first compound 0.3162 µM): 0.49
- relative viability (ABC-1; first compound 1 µM): 0.13
- relative viability (NCI-H1651; first compound 0.01 µM): 1
- relative viability (NCI-H1651; first compound 0.03162 µM): 0.87
- relative viability (NCI-H1651; first compound 0.1 µM): 0.894
- relative viability (NCI-H1651; first compound 0.3162 µM): 0.862
- relative viability (NCI-H1651; first compound 1 µM): 0.714
- relative viability (NCI-H2023; first compound 0.01 µM): 0.573
- relative viability (NCI-H2023; first compound 0.03162 µM): 0.612
- relative viability (NCI-H2023; first compound 0.1 µM): 0.417
- relative viability (NCI-H2023; first compound 0.3162 µM): 0.209
- relative viability (NCI-H2023; first compound 1 µM): 0.118
- relative viability (NCI-H1792; first compound 0.01 µM): 1.06
- relative viability (NCI-H1792; first compound 0.03162 µM): 1
- relative viability (NCI-H1792; first compound 0.1 µM): 0.975
- relative viability (NCI-H1792; first compound 0.3162 µM): 0.646
- relative viability (NCI-H1792; first compound 1 µM): 1.12
